Structures are written as SMILES.

Usually IC50 stands for the point on the concentration scale where inhibition reaches its midpoint.

Experiment [1] deals with HBO-KAT7 (Homo sapiens, UniProt O95251). Briefly: Acetyltransferase biochemical assay (AlphaScreen), KAT7. In general terms: Bead proximity is the source of the signal in Alpha formats.
The target of experiment [2] is MOZ-KAT6A (Homo sapiens, UniProt Q92794, A567V). Briefly: Acetyltransferase biochemical assay (AlphaScreen), KAT6A.
Experiment [3] deals with acetylation of the histone H3 Lysine 14 marker in U2OS cells. Briefly: Histone H3 Lysine 14 Acetylation Biomarker Assay. The experiment is classed as cell-based. Conditions: Homo sapiens, serum free medium, 24 hours incubation, read-out: IC50, inhibition of histone H3 Lysine 14 acetylation. Here is the method:
Compounds were tested for their ability to inhibit acetylation of the histone H3 Lysine 14 marker in the following assay:
The cell line U2OS was seeded at a density of 3,000 cells per well in 384-well optical quality tissue culture plates in RPMI medium supplemented with 10% foetal bovine serum and 10 mM Hepes. The cells were allowed to adhere for 24 hours under standard culture conditions (37 degree Celsius, 5% CO2). At the end of this period the cells were washed with serum free medium. […] After incubation for 24 hours, the cells were fixed with 4% formaldehyde in PBS for 15 minutes at room temperature, washed with phosphate buffer saline and blocked with blocking buffer containing 0.2% TritonX100 and 2% BSA. Anti-H3K14ac specific antibody (Cell Signalling Technologies) in blocking buffer was added and incubated overnight at 4 degree Celsius. After washing, a secondary antibody labelled with AlexaFluor 488 dye (ThermoFisher) and Hoechst 33342 (1 μg/mL, Life Technologies) were added for 2 hours incubation at room temperature. Plates were washed and read on a PerkinElmer Opera HCS high content imaging platform. Using a Columbus image analysis pipeline, individual nuclei were located by Hoechst 33342 stain and the acetylation level was calculated from the AlexaFluor 488-related intensity in the same area.

The subject of experiment [4] is histone H2A.Z Lysine 7 acetylation marker in U2OS cells. The experiment is described as follows: H2A.Z Lysine 7 Acetylation Biomarker Assay. The experiment is classed as cell-based. Conditions: Homo sapiens, serum free medium, 24 hours incubation, read-out: IC50, inhibition of histone H2A.Z Lysine 7 acetylation. Here is the method: Compounds were tested for their ability to inhibit the histone H2A.Z Lysine 7 acetylation marker in the following assay:
The cell line U2OS was seeded at a density of 3,000 cells per well in 384-well optical quality tissue culture plates in RPMI medium supplemented with 10% foetal bovine serum and 10 mM Hepes. The cells were allowed to adhere for 24 hours under standard culture conditions (37 degree Celsius, 5% CO2). At the end of this period the cells were washed with serum free medium. […] 2018, at 30 μM concentration. After incubation for 24 hours, the cells were fixed with 4% formaldehyde in PBS for 15 minutes at room temperature, washed with phosphate buffer saline and blocked with blocking buffer containing 0.2% TritonX100 and 2% BSA. Anti-H2A.ZK7ac specific antibody (Abcam) in blocking buffer was added and incubated overnight at 4 degree Celsius. After washing, a secondary antibody labelled with AlexaFluor 488 dye (ThermoFisher) and Hoechst 33342 (1 μg/mL, Life Technologies) were added for 2 hours incubation at room temperature. Plates were washed and read on a PerkinElmer Opera HCS high content imaging platform. Using a Columbus image analysis pipeline, individual nuclei were located by Hoechst 33342 stain and the acetylation level was calculated from the AlexaFluor 488-related intensity in the same area.

Experiment [5] deals with TIP60-KAT5 (Homo sapiens, UniProt Q92993). The experiment is described as follows: Acetyltransferase biochemical assay (AlphaScreen), KAT5.
TIP60-KAT5, sequence (Q92993 with tags, fused parts or gaps isoform Q92993-2): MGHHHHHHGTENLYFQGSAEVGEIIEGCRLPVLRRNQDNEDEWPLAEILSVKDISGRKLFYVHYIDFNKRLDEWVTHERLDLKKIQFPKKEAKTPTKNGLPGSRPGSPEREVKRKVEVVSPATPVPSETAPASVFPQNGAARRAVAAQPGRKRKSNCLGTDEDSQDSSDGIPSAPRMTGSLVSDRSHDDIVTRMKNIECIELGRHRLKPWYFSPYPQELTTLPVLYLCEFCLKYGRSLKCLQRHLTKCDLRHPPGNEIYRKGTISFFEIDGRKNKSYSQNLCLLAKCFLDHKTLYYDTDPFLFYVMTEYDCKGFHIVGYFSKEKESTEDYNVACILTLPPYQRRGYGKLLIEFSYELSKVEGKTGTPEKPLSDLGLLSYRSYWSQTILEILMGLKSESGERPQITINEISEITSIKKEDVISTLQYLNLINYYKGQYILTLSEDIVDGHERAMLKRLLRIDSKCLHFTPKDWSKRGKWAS
The subject of experiment [6] is acetylation of the histone H3K23 marker in U2OS cells. The experiment is described as follows: Histone H3 Lysine 23 Acetylation Biomarker Assay. The experiment is classed as cell-based. Conditions: Homo sapiens, 24 hours incubation, read-out: IC50, inhibition of histone H3K23 acetylation. Here is the method: Compounds were tested for their ability to inhibit acetylation of the histone H3K23 marker in the following assay:
The cell line U2OS was seeded at a density of 9,000 cells per well in 96 well optical quality tissue culture plates in RPMI medium and 10% foetal bovine serum, and allowed to adhere for 24 hours under standard culture conditions (37 degree Celsius, 5% CO2). At the end of this period the medium was aspirated. […] After incubation for 24 hours, the cells were fixed with 3.7% formaldehyde in PBS for 20 minutes at room temperature, washed (5×5 minutes) with phosphate buffer saline containing 0.1% Tween 20 and blocked with Odyssey blocking buffer (LI-COR, Lincoln, Nebr.) containing 0.1% TritonX100. Anti-H3K23ac specific antibody (Abcam ab177275) in Odyssey blocking buffer containing 0.1% Tween 20 was added and incubated for 16 hours at 4 degree Celsius. After washing (as above), a secondary antibody labelled with Alexa647 dye (LifeTechnologies) and Hoechst 33342 (1 μg/mL, SigmaAldrich) were added for 1 hour incubation. Plates were washed as previously and read on a PerkinElmer Phenix high content imaging platform. Using a Columbus image analysis pipeline, individual nuclei were located by Hoechst 33342 stain and the acetylation level was calculated from the Alexa647-related intensity in the same area.

Experiment [7] deals with T1, MOF-KAT8 (Homo sapiens, UniProt Q9H7Z6).
T1 sequence (Q9H7Z6 with tags, fused parts or gaps): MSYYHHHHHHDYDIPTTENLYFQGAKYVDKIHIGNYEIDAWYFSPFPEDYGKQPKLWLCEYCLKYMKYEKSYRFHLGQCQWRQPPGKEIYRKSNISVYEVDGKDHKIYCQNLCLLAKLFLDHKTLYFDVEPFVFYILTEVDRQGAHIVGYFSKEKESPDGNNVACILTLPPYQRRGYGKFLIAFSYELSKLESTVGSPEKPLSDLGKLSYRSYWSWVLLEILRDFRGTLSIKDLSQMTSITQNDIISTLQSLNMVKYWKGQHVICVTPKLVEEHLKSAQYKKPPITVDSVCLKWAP
Briefly: biochemical.

MOZ-KAT6A, sequence (Q92794 with tags, fused parts or gaps A567V): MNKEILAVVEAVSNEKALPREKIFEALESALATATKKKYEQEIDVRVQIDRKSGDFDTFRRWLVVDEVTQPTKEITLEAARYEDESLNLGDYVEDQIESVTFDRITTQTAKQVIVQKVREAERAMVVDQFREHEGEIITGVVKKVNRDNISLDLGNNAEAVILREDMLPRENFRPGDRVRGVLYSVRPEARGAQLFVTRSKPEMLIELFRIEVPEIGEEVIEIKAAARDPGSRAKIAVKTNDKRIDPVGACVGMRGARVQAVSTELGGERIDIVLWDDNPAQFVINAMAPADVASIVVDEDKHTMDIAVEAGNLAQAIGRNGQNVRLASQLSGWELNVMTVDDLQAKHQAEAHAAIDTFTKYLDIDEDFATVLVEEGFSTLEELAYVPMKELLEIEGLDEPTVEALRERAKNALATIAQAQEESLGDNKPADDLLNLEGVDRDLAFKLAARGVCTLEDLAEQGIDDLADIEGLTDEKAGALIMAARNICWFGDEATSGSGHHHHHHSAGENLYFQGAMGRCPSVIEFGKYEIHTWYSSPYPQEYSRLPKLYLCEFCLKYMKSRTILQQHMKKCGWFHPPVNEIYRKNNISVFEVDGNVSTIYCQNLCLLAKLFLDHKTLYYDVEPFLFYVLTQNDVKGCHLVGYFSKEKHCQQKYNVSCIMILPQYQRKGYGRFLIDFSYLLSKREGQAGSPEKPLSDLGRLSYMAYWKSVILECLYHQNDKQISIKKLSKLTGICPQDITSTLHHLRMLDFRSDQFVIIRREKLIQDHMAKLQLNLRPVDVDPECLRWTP
HBO-KAT7, sequence (O95251 with tags, fused parts or gaps): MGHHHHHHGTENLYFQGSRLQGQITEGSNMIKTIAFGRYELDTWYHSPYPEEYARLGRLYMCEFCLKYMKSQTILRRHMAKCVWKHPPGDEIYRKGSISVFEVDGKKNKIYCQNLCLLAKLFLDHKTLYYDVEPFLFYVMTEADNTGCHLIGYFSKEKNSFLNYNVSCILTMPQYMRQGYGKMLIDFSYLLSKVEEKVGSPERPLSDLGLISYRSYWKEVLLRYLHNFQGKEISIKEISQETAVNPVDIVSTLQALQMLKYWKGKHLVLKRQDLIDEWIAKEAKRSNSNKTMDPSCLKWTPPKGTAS

On to `COc1cccc(OC)c1S(=O)(=O)Nc1noc2cc(Br)cc(OC)c12` [Example 89], for which the IC50 in experiment [1] came out at 168 nM; in experiment [2], 0.285 µM; in experiment [3] it was 3.96 µM; in experiment [4], 19.8 µM; in experiment [5] it was 5.79 µM.
Regarding `CCc1ccc(OC)c(S(=O)(=O)Nc2noc3c(-c4cnn(C)c4)cccc23)c1` [Example 191, 5-Ethyl-2-methoxy-N-(7-(1-methyl-1H-pyrazol-4-yl)benzo[d]isoxazol-3-yl)benzenesulfonamide], the IC50 is 1580 nM in experiment [1]; 12.6 µM in experiment [2]; 17.8 µM in experiment [3]; greater than 10000 nM in experiment [6]; greater than 40 µM in experiment [4]; 68.7 µM in experiment [5].
Regarding `COc1cncc(-c2cc(OC)c3c(NS(=O)(=O)c4c(OC)cccc4OC)noc3c2)c1` [Example 250, 2,6-Dimethoxy-N-(4-methoxy-6-(5-methoxypyridin-3-yl)benzo[d]isoxazol-3-yl)benzenesulfonamide], the IC50 in experiment [1] came out at 50 nM; in experiment [2] it was 0.423 µM; in experiment [3], 3.48 µM; in experiment [6], 3710 nM; in experiment [4] it was 13.2 µM; in experiment [5] it was 12.2 µM.
Regarding `CCc1ccc(OC)c(S(=O)(=O)Nc2noc3ccc(C4CC4)cc23)c1` [Example 236], the IC50 in experiment [1] is 1070 nM; in experiment [2], 0.318 µM; in experiment [3], greater than 40 µM; in experiment [4], greater than 40 µM; in experiment [7], 3.68 µM; in experiment [5], 10.1 µM.
As for `COc1ccc(S(=O)(=O)Nc2noc3cccc(OC)c23)c2ncccc12` [Example 74, 5-methoxy-N-(4-methoxybenzo[d]isoxazol-3-yl) quinoline-8-sulfonamide], the IC50 in experiment [1] is 1660 nM; in experiment [2] it was 3.91 µM; in experiment [3] it was 31.7 µM; in experiment [5] it was 8.13 µM.
Consider `COc1ccc(S(=O)(=O)Nc2noc3cc(Br)c(C)cc23)c(OC)c1` [Example 171], for which the IC50 in experiment [1] came out at 292 nM; in experiment [2], 1.88 µM; in experiment [3] it was 2.57 µM; in experiment [5], 4.37 µM.
In the case of `COc1ccc(S(=O)(=O)Nc2noc3cc(C(N)=O)c(C)cc23)c2ncccc12` [Example 168, 3-((5-methoxyquinoline)-8-sulfonamido)-5-methylbenzo[d]isoxazole-6-carboxamide], the IC50 was 36400 nM in experiment [1]; 10 µM in experiment [2]; greater than 40 µM in experiment [4]; 6.46 µM in experiment [7]; 3.42 µM in experiment [5].
Take `COc1cccc(F)c1S(=O)(=O)Nc1noc2cccc(OC)c12` [Example 212, 2-Fluoro-6-methoxy-N-(4-methoxybenzo[d]isoxazol-3-yl)benzenesulfonamide]: the IC50 in experiment [1] amounted to 1050 nM; in experiment [2] it was 2.12 µM; in experiment [3], 10.3 µM; in experiment [5], 9.3 µM.
Take `COc1cc(CNC(C)=O)cc(OC)c1S(=O)(=O)Nc1noc2cccc(OC)c12` [Example 211, N-(3,5-Dimethoxy-4-(N-(4-methoxybenzo[d]isoxazol-3-yl)sulfamoyl)benzyl)acetamide]: the IC50 in experiment [1] is 917 nM; in experiment [2] it was 2.13 µM; in experiment [3], greater than 40 µM; in experiment [7], 29.5 µM; in experiment [5], 7.93 µM.
With `COc1cccc(OC)c1S(=O)(=O)Nc1noc2c(-c3ccccc3)cc(C)cc12` [Example 252, 2,6-Dimethoxy-N-(5-methyl-7-phenylbenzo[d]isoxazol-3-yl)benzenesulfonamide], the IC50 in experiment [1] is 1300 nM; in experiment [2] it was 4.16 µM; in experiment [3], 24.7 µM; in experiment [4], greater than 40 µM; in experiment [5], 102 µM.
As for `CCOc1cccc(OC)c1S(=O)(=O)Nc1noc2cccc(OC)c12` [Example 218, 2-Ethoxy-6-methoxy-N-(4-methoxybenzo[d]isoxazol-3-yl)benzenesulfonamide], the IC50 was 6440 nM in experiment [1], 6.59 µM in experiment [2], greater than 40 µM in experiment [3] and greater than 125 µM in experiment [5].
As to `COc1cccc2onc(NS(=O)(=O)c3cccc4ccc(C)nc34)c12` [Example 80, N-(4-methoxybenzo[d]isoxazol-3-yl)-2-methyl quinoline-8-sulfonamide], the IC50 in experiment [1] was determined as 1130 nM; in experiment [2], 3.47 µM; in experiment [3], 11.5 µM; in experiment [5], 10.9 µM.
Regarding `CCc1ccc(OC)c(S(=O)(=O)Nc2noc3ccc(C)cc23)c1` [Example 234, 5-Ethyl-2-methoxy-N-(5-methylbenzo[d]isoxazol-3-yl)benzenesulfonamide], the IC50 in experiment [1] was 3740 nM; in experiment [2] it was 0.381 µM; in experiment [4] it was greater than 40 µM; in experiment [5] it was 10.9 µM.
Consider `COc1cccc(OC)c1S(=O)(=O)Nc1noc2cccc(OC)c12` [Example 86, 2,6-dimethoxy-N-(4-methoxybenzo[d]isoxazol-3-yl)benzene sulfonamide], for which the IC50 turned out to be 1980 nM in experiment [1], 5.89 µM in experiment [2], 1580 nM in experiment [6] and 97.6 µM in experiment [5].
For `COc1cccc(OC)c1S(=O)(=O)Nc1noc2cc(OC(F)F)cc(OC)c12` [Example 242] the same measures were 1780 nM, 3.23 µM, 672 nM and 27.3 µM.
Regarding `COc1ccnc2c(S(=O)(=O)Nc3noc4cccc(OC)c34)cccc12` [Example 75, 4-methoxy-N-(4-methoxybenzo[d]isoxazol-3-yl)quinoline-8-sulfonamide], the IC50 is 5750 nM in experiment [1], 23.5 µM in experiment [2], greater than 40 µM in experiment [3] and 33.5 µM in experiment [5].
Take `COCc1cc(OC)c2c(NS(=O)(=O)c3c(O)cccc3OC)noc2c1` [Example 163, 2-hydroxy-6-methoxy-N-(4-methoxy-6-(methoxymethyl)benzo[d]isoxazol-3-yl)benzenesulfonamide]: the concentration for half-maximal inhibition (IC50) is 13100 nM in experiment [1]; 0.884 µM in experiment [2]; 20.4 µM in experiment [3]; greater than 125 µM in experiment [7]; greater than 125 µM in experiment [5].
On to `COc1cccc2onc(NS(=O)(=O)c3cccc4c3OCCC4)c12` [Example 82, N-(4-methoxybenzo[d]isoxazol-3-yl)chromane-8-sulfonamide], for which the IC50 in experiment [1] was determined as 1500 nM; in experiment [2], 6.13 µM; in experiment [3], 12.6 µM; in experiment [5], 8.25 µM.

Source of the values: patent publication US12365655B2, “Compounds” (CTXT PTY LTD, priority 2018, dated 2025).
